Among the test systems are 786-0; A498; A549; CAKI-1; CCRF-CEM; HCT-116; HL-60; KM12; LOX IMVI; MDA-N; NCI-H226; NCI-H23; OVCAR-5; OVCAR-8; RXF 393; SK-MEL-5; SNB-19; SW-620; UACC-257; UO-31.
Assay in all cases: NCI-60 cell line screen, 48 h

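Compound exposure: 48 hours, 5 concentrations, 96-well plates. GI50 = concentration required for 50% inhibition of growth.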 Activity calls are given as the source filed them. Rule as the data show it: active = GI50 up to about 1.1 µM and inactive = higher. Where only a bound is given, the exact number is not on record here.

In the case of `O=C1c2ccccc2C(=O)c2c(OCC3CO3)ccc(OCC3CO3)c21` (stereo unspecified), the GI50 in the test with 786-0 was 1.48 µM (inactive); in the test with A498, 17.9 µM (inactive); in the test with A549, 3.46 µM (inactive); in the test with CAKI-1, 1.91 µM (inactive); in the test on CCRF-CEM, < 0.0167 µM (active); in the test with HCT-116, 1.99 µM (inactive). For the same compound, the GI50 is 0.118 µM (active) with HL-60; 5.04 µM (inactive) with KM12; 0.0386 µM (active) in the test with LOX IMVI; 3.8 µM (inactive) with MDA-N; 12.4 µM (inactive) in the test on NCI-H226; 4.12 µM (inactive) in the test with NCI-H23. In addition, the GI50 was 10.5 µM (inactive) in the test on OVCAR-5; 1.48 µM (inactive) in the test with OVCAR-8; 3.96 µM (inactive) in the test on RXF 393; 5.69 µM (inactive) in the test with SK-MEL-5; 7.67 µM (inactive) in the test with SNB-19; 1.1 µM (active) in the test with SW-620. Besides, the GI50 with UACC-257 was 6.04 µM (inactive); with UO-31, 2.94 µM (inactive).

Consider `NS(=O)(=O)c1ccc(/N=N/c2ncccc2O)cc1`, for which the GI50 is 53.1 µM (inactive) in the test on 786-0; > 100 µM (inactive) with A498; > 100 µM (inactive) with A549; > 100 µM (inactive) in the test on CAKI-1; 39.3 µM (inactive) with HCT-116; 41.1 µM (inactive) in the test with HL-60. Further, the GI50 in the test on KM12 is 60.5 µM (inactive); in the test on LOX IMVI, 77.4 µM (inactive); in the test on MDA-N, > 100 µM (inactive); in the test on NCI-H226 it was > 100 µM (inactive); in the test on NCI-H23, 51.4 µM (inactive); in the test on OVCAR-5, > 100 µM (inactive). Besides, the GI50 was 79.6 µM (inactive) with OVCAR-8; > 100 µM (inactive) in the test with RXF 393; > 100 µM (inactive) in the test with SK-MEL-5; > 100 µM (inactive) in the test with SNB-19; 57.3 µM (inactive) in the test with SW-620; > 100 µM (inactive) in the test with UACC-257. The GI50 with UO-31 was > 100 µM (inactive).

Take `Cc1cc(=O)oc2cc(O)c(CN(C)CC(=O)O)cc12`: the GI50 with 786-0, in the test with A498, in the test with A549, with CAKI-1, in the test on HCT-116 and in the test on HL-60 was > 100 µM (inactive) throughout. The GI50 in the test with KM12, in the test with LOX IMVI, with MDA-N, in the test on NCI-H226, in the test with NCI-H23 and with OVCAR-5 was > 100 µM (inactive) each time. The GI50 in the test on OVCAR-8, with RXF 393, in the test with SK-MEL-5, with SNB-19, in the test with SW-620 and in the test with UACC-257 was > 100 µM (inactive) each time. Moreover, in the test on UO-31, the GI50 was > 100 µM (inactive).

For the compound `CCCc1c(OC)c(=O)c2c(OC)cc(OC)c3c4c(OC)cc(OC)c5c(=O)c(OC)c(CCC)c(c1c23)c54`, the GI50 is 13.1 µM (inactive) in the test with 786-0; 19.1 µM (inactive) in the test with A498; 19.4 µM (inactive) with A549; 14.6 µM (inactive) in the test with CAKI-1; 13.8 µM (inactive) in the test on HCT-116; 2.77 µM (inactive) in the test on HL-60. Moreover, the GI50 was 14.6 µM (inactive) with KM12; 7.4 µM (inactive) in the test with LOX IMVI; 15.2 µM (inactive) in the test on MDA-N; 16.2 µM (inactive) with NCI-H226; 14.9 µM (inactive) with NCI-H23; 15.2 µM (inactive) in the test on OVCAR-5. The GI50 with OVCAR-8 was 17.5 µM (inactive); in the test with RXF 393, 20.7 µM (inactive); in the test on SK-MEL-5, 10.7 µM (inactive); in the test with SNB-19, 19.8 µM (inactive); in the test on SW-620 it was 17.3 µM (inactive); in the test with UACC-257, 20.7 µM (inactive). For the same compound, the GI50 in the test with UO-31 was 15.5 µM (inactive).

As for `CCc1cccc(CC)c1NC(=S)NC(=O)c1ccc(Br)cc1`, the GI50 is 30.1 µM (inactive) in the test with 786-0; 33.6 µM (inactive) in the test with A498; 32.8 µM (inactive) with A549; 29.6 µM (inactive) in the test on CAKI-1; 17.7 µM (inactive) in the test with CCRF-CEM; 28.8 µM (inactive) in the test with HCT-116. In addition, the GI50 in the test with HL-60 is 17.5 µM (inactive); in the test on KM12, 33.8 µM (inactive); in the test on LOX IMVI it was > 39.4 µM (inactive); in the test on MDA-N it was 30.4 µM (inactive); in the test with NCI-H226 it was 21.5 µM (inactive); in the test with NCI-H23, 29.6 µM (inactive). Moreover, the GI50 was > 50.4 µM (inactive) in the test on OVCAR-5; 54.5 µM (inactive) with OVCAR-8; 19.1 µM (inactive) with RXF 393; 26.4 µM (inactive) in the test with SK-MEL-5; 40.9 µM (inactive) with SNB-19; 36.5 µM (inactive) in the test on SW-620. Moreover, the GI50 was 32.2 µM (inactive) in the test with UACC-257 and 26.3 µM (inactive) in the test with UO-31.

Take `CCOC(=O)c1ccc(NC(NC(=O)CC)(C(F)(F)F)C(F)(F)F)cc1`: the GI50 in the test with 786-0, with A498, in the test with A549, with CAKI-1, in the test with CCRF-CEM and in the test on HCT-116 was > 100 µM (inactive) throughout. Moreover, the GI50 with HL-60 was > 100 µM (inactive); with KM12, 59.6 µM (inactive); in the test on LOX IMVI it was 96.2 µM (inactive); with MDA-N, > 100 µM (inactive); in the test with NCI-H226, > 100 µM (inactive); in the test with NCI-H23, > 100 µM (inactive). Moreover, the GI50 in the test with OVCAR-5, in the test with OVCAR-8, with RXF 393, in the test on SK-MEL-5, with SNB-19 and in the test on SW-620 was > 100 µM (inactive) throughout. In addition, the values for the GI50 in the test with UACC-257 and with UO-31 were > 100 µM (inactive) and 36.2 µM (inactive), respectively.

Consider `C=C(C)C(O)C(O)c1c(OC)ccc2ccc(=O)oc12` (stereo unspecified), for which the GI50 with 786-0, in the test with A498, with A549, with CAKI-1, in the test with CCRF-CEM and with HCT-116 was > 100 µM (inactive) throughout. Besides, the GI50 in the test with HL-60, in the test with KM12, in the test with MDA-N, with NCI-H226, in the test on NCI-H23 and in the test on OVCAR-5 was > 100 µM (inactive) in each case. The GI50 with OVCAR-8, in the test with RXF 393, with SK-MEL-5, in the test with SNB-19, in the test with SW-620 and in the test on UACC-257 was > 100 µM (inactive) each time. In the test with UO-31, the GI50 was > 100 µM (inactive).

These data come from ChEMBL document CHEMBL1201862, “PubChem BioAssay data set” (2004).
